In assay [1] the test system is PN 200-110 binding sites in the rat brain. Briefly: Binding affinity for PN 200-110 (DHP) binding sites in the rat brain. The following applies: for Selectivity: Ki (Heart) relative to Ki (Brain), rat; for Ki: rat brain, PN 200-110 binding sites. An excerpt: (§1) Binding Assays […] Can. Journ. Physiol. Pharmacol. 65, (1987) 1452. […] This manifests itself, for example, by comparison of the binding affinities for DHP (PN-200 110) binding sites in the rat brain and rat […]., Rutledge, A., Janis, […]., Can. Journ. Physiol. Pharmacol. 65 (1987), 1452].

Assay [2] has as its target T1, PN 200-110 binding sites in the rat heart (Rattus norvegicus, UniProt P22002).
T1 construct: from tissue; host or cells: rat heart
Briefly: Binding affinity for PN 200-110 (DHP) binding sites in the rat heart.
From the text: as §1

This note sets out measurements from US6066655A, “4-phenyl-3-substituted 1,4-dihydropyridine esters” (Bayer Aktiengesellschaft, priority 1993, dated 2000).

T1 sequence (P22002 whole entry, other chains not shown): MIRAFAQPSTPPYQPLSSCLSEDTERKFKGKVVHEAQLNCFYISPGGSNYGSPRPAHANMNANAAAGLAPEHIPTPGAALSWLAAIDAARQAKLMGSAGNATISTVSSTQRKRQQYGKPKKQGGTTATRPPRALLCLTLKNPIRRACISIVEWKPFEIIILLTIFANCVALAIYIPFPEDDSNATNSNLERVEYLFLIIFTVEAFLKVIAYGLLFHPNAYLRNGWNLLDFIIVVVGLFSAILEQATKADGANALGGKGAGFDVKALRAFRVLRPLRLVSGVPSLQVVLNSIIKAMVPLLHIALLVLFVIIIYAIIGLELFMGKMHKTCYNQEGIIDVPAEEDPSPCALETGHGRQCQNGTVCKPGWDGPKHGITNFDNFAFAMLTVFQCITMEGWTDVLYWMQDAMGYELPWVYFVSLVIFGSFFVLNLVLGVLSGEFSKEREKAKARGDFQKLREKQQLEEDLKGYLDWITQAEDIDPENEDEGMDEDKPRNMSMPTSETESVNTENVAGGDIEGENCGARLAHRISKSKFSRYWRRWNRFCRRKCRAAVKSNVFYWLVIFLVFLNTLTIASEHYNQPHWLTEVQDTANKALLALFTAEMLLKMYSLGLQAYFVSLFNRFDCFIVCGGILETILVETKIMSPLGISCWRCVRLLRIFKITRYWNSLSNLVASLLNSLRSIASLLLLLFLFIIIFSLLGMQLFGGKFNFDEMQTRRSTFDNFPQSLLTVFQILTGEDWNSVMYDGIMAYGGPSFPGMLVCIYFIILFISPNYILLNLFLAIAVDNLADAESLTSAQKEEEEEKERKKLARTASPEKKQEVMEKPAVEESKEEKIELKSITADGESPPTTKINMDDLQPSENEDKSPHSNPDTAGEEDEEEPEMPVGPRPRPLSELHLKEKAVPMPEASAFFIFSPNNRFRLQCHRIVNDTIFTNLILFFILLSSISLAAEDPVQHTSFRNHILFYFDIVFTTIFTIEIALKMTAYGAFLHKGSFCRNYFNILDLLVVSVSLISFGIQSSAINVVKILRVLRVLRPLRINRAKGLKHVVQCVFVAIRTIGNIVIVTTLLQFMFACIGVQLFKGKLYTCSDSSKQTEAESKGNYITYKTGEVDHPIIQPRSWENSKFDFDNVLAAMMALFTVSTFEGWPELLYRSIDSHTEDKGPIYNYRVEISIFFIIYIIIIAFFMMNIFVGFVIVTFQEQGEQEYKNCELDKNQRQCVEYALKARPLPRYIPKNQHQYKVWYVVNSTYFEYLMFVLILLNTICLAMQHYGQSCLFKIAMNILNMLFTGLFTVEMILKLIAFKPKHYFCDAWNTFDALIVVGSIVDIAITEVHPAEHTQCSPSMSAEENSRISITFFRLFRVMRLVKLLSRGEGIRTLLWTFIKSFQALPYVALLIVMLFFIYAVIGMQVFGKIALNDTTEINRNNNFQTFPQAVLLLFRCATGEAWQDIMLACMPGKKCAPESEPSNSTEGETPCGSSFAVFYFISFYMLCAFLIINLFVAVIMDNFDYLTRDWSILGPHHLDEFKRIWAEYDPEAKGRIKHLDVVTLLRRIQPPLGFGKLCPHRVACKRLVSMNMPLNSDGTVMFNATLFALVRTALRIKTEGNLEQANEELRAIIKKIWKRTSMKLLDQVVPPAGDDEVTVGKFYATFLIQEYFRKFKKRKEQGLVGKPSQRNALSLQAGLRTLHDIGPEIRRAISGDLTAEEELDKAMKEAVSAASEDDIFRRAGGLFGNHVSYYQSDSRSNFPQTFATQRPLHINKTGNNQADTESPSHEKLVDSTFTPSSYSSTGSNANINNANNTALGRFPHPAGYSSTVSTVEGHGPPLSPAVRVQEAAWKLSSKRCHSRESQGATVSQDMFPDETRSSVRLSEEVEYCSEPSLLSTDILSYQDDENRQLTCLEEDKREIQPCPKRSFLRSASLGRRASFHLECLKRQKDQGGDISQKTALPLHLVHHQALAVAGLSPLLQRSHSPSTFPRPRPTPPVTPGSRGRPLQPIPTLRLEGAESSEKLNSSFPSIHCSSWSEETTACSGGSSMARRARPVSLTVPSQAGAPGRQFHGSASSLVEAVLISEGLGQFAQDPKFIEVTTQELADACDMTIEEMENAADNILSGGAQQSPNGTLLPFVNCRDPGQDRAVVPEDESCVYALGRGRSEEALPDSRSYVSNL
T1 sequence (P54290 25-944 partner limits assumed, other chains not shown): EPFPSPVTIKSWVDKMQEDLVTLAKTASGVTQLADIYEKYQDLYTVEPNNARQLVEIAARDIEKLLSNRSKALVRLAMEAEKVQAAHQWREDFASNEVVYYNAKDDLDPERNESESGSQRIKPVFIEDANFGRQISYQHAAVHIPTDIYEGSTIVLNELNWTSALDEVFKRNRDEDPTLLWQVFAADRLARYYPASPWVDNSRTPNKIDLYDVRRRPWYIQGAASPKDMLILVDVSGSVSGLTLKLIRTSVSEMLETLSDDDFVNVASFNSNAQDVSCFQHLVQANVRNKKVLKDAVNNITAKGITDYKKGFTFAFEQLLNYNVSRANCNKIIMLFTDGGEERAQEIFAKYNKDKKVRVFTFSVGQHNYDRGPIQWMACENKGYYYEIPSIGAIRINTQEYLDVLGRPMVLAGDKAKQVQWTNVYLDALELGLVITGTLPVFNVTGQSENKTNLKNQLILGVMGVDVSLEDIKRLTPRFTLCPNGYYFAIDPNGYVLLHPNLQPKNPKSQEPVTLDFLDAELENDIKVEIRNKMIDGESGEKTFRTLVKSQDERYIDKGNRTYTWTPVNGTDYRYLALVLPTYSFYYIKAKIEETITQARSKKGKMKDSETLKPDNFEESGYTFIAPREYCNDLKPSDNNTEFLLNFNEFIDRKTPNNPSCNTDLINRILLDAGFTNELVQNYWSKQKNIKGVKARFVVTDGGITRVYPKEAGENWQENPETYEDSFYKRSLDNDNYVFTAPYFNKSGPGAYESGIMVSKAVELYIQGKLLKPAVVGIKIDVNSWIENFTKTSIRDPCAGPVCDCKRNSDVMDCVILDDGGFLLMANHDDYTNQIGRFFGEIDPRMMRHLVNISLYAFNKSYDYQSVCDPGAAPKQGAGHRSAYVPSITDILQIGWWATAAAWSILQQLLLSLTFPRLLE
T1 sequence (P54290 945-1091 partner limits assumed, other chains not shown): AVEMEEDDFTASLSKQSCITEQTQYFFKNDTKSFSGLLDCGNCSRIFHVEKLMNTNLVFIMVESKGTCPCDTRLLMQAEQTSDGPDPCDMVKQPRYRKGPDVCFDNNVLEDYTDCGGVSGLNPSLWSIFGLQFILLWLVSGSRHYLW

`CO[C@H](COC(=O)C1=C(C)NC(C)=C(C(=O)OC(C)C)C1c1cccc(F)c1F)c1ccccc1` (stereo partly drawn) [Example 21, isopropyl (S)-methoxy-2-phenylethyl 4-(2,3-difluorophenyl)-1,4-dihydro-2,6-dimethylpyridine-3,5-dicarboxylate] gave a Selectivity in assay [1] of 6.0. Moreover, the Ki – broadly, the dissociation constant of the complex between target and ligand, obtained from inhibition or displacement – in assay [1] is 13 nM; in assay [2] it was 78 nM.
In assay [1], `COC(=O)C1=C(C)NC(C)=C(C(=O)OCCN(C)Cc2ccccc2)C1c1cccc([N+](=O)[O-])c1` (stereo not shown) [Nicardipine, nicardipine] came in with a Selectivity of 0.44 and a Ki of 32 nM.
Taken in the same sequence, the figures for `COCCOC(=O)C1=C(C)NC(C)=C(C(=O)OC(C)C)C1c1cccc([N+](=O)[O-])c1` (stereo not shown) [Nimodipine, nimodipine] were 1.9 and 2.4 nM.
